Data published in patent publication US20110098322A1, “PREPARATION OF NOVEL 1,3-S[…] AS INHIBITORS OF SOLUBLE EPOXIDE HYDROLASE” (priority 2007, published 2011).

What follows are compounds tested against T1, Recombinant human sEH (Homo sapiens, UniProt P34913) (assay: Inhibition of human soluble epoxide hydrolase (IC50 assay)).
T1 construct: made in house
T1 sequence (P34913 1-555): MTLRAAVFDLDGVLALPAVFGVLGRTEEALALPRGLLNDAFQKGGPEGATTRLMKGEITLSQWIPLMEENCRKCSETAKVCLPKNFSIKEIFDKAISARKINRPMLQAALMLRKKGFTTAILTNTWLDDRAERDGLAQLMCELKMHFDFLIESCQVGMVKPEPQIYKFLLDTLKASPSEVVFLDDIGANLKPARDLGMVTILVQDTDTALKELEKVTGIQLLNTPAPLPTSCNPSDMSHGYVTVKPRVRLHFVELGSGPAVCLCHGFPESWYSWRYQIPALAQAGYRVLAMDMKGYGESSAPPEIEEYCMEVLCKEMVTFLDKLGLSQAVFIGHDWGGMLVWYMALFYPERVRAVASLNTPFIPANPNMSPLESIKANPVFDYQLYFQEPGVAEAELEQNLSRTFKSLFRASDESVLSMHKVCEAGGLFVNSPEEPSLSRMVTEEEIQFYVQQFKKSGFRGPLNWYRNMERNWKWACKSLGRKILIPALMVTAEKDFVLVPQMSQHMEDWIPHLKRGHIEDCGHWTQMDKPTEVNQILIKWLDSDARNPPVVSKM
Type: biochemical
Source text: This example provides assays and illustrates the inhibition of human soluble epoxide hydrolases by compounds of the invention.
Recombinant human sEH was produced in a baculovirus expression system and purified by affinity chromatography. The preparations were at least 97% pure as judged by SDS-PAGE and scanning densitometry. No detectable esterase or glutathione transferase activity, which can interfere with this sEH assay, was observed. Protein concentration was quantified by using the Pierce BCA assay using Fraction V bovine serum albumin as the calibrating standard.
IC50 values were determined in one of three methods. One method uses racemic 4-nitrophenyl-trans-2,3-epoxy-3-phenylpropyl carbonate as substrate. Enzyme (0.24 μM human sEH) was incubated with inhibitors for 5 min in sodium phosphate buffer, 0.1 M pH 7.4, at 30° C. before substrate introduction([S]=40 μM). Activity was assessed by measuring the appearance of the 4-nitrophenolate anion at 405 nm at 30° C. during 1 min (Spectramax 200; Molecular Devices). Assays were performed in triplicate. 1050 is a concentration of inhibitor, which reduces enzyme activity by 50%, and was determined by regression of at least five datum points with a minimum of two points in the linear region of the curve on either side of the IC50. The curve was generated from at least three separate runs, each in triplicate.
Other IC50 values were determined using the procedure described in Analytical
Biochemistry 343 66-75 (2005) using cyano(6-methoxy-naphthalen-2-yl)methyl trans-[(3-phenyloxiran-2-yl)methyl]carbonate as a substrate. Enzymes (0.96 nM for human sEH) were incubated with inhibitors ([I]=0.5-10,000 nM) for 5 min in BisTris-HCl buffer (25 mM, pH 7.0, containing 0.1 mg/ml of BSA) at 30° C. prior to substrate introduction ([S]=5 µM). Enzyme activity was measured by monitoring the appearance of 6-methoxy-2-naphthaldehyde. Assays were performed in triplicate. By definition, IC50 values are concentrations of inhibitor that reduce enzyme activity by 50%. IC50 values were determined by regression of at least five datum points, with a minimum of two datum points in the linear region of the curve on either side of the IC50 values. The curve was generated from at least three separate runs, each in triplicate.
Other inhibition potencies were determined using a fluorescent based high-throughput assay. Inhibitors in solution at 10 mM in DMSO were serially diluted by 10-fold increment in Bis/Tris HCl buffer (25 mM pH 7.0) containing 0.1 mg/mL of BSA (Buffer A). In black 96-well plates, 20 µL of the inhibitor dilution or buffer were delivered in every well, and then 130 μL of Human sEH at ˜0.4 μg/mL in solution in Buffer A were added to each well. The plate was then mixed and incubated at room temperature for 5 minutes. Fifty microliters of substrate ((3-Phenyl-oxiranyl)-acetic acid cyano-(6-methoxy-naphthalen-2-yl)-methyl ester; PHOME) at 200 μM in solution in 96:4 Buffer A:DMSO was then added to each well to give [S]final=50 μM and [E]final=˜4 nM. The plate was then mixed and incubated in the dark at room temperature (˜25° C.) for 90 min. Activity was measured by determining the relative quantity of 6-methoxy-2-naphthaldehyde formed with an excitation wavelength of 316 nm and an emission wavelength of 460 nm measured with a SpectraMax M-2 fluorometer (molecular Devices, Sunnyvale, Calif.).
Assays were conducted with the compounds indicated in the table below, as described above.

Row | SMILES | IC50 [nM]
1 | C=C(C)c1cccc(C(C)(C)NC(=O)NC2CCCCC2)c1 [Compound 1520] | 11.4
2 | CC(C)c1cccc(C(C)(C)NC(=O)NC2CCCCC2)c1 [Compound 1713, 1-cyclohexyl-3-(2-(3-isopropylphenyl)propan-2-yl)urea] | 7.5
3 | C=C(C)c1cccc(C(C)(C)NC(=O)NCCCCCCCCCCCC)c1 [Compound 1714] | 33
4 | CCCCCCCCCCCCNC(=O)NC(C)(C)c1cccc(C(C)C)c1 [Compound 1715] | 10.9
5 | C=C(C)c1cccc(C(C)(C)NC(=O)Nc2cccc(C(=O)OCC)c2)c1 [Compound 1716] | 41.3
6 | CCOC(=O)c1cccc(NC(=O)NC(C)(C)c2cccc(C(C)C)c2)c1 [Compound 1717] | 158
7 | C=C(C)c1cccc(C(C)(C)NC(=O)Nc2cccc(C(=O)O)c2)c1 [Compound 1718] | 7920
8 | CC(C)c1cccc(C(C)(C)NC(=O)Nc2cccc(C(=O)O)c2)c1 [Compound 1719] | 1610
9 | CC(C)c1cccc(C(C)(C)NC(=O)NCCCCc2ccccc2)c1 [Compound 1805] | 11.5
10 | CC(C)c1cccc(C(C)(C)NC(=O)NCC2CCN(C(=O)OC(C)(C)C)CC2)c1 [Compound 1806] | 5.6
11 | CC(C)c1cccc(C(C)(C)NC(=O)NCCc2ccc(C(=O)O)cc2)c1 [Compound 1807] | 2890
12 | CC(C)c1cccc(C(C)(C)NC(=O)NCCCCCCCCCCCC(=O)O)c1 [Compound 1808] | 52.5
13 | CC(C)c1cccc(C(C)(C)NC(=O)NC2CCC(C(=O)O)CC2)c1 (stereo not drawn) [Compound 1852] | 555
14 | CC(C)c1cccc(C(C)(C)NC(=O)NC2CCN(C(=O)OC(C)(C)C)CC2)c1 [Compound 1868] | 21.6
15 | C=C(C)c1cccc(C(C)(C)NC(=O)N[C@H]2CC[C@H](O)CC2)c1 [Compound 1887, trans-1-(4-Hydroxy-cyclohexyl)-3-[1-(3-isopropenyl)-1-methyl-ethyl]-urea] | 76.7
16 | CC(C)c1cccc(C(C)(C)NC(=O)NC2CCC(O)CC2)c1 (stereo not drawn) [Compound 1892] | 393
17 | CC(C)c1cccc(C(C)(C)NC(=O)N[C@H]2CC[C@H](Oc3ccc(C#N)cc3)CC2)c1 [Compound 1908, trans-1-[4-(4-Cyano-phenoxy)-cyclohexyl]-3-[1-(3-isopropyl-phenyl)-1-methyl-ethyl]-urea] | 9.8
18 | CC(C)c1cccc(C(C)(C)NC(=O)NCc2ccc(Oc3ccccc3)cc2)c1 [Compound 1955] | 10.6
19 | CC(C)c1cccc(C(C)(C)NC(=O)N[C@H]2CC[C@H](Oc3ccc(C(=O)O)cc3)CC2)c1 [Compound 1956] | 3.9
20 | CC(C)c1cccc(C(C)(C)NC(=O)NC2CCN(S(C)(=O)=O)CC2)c1 [Compound 2048] | 97.6
21 | CC(=O)N1CCC(NC(=O)NC(C)(C)c2cccc(C(C)C)c2)CC1 [Compound 2064] | 444
